Reference: publication PMC9794587 (Frontiers in Pharmacology, 2022)
Where two headings read alike, the source gives them in different places. Where no end group is shown, it is not given here.

Legend:
[1] = in vivo; details: both, beagle, dog, t1/2
[2] = in vivo; details: both, Sprague-Dawley, rat, iv, t1/2
[3] = rat, in vivo, im, t1/2
[4] = Pharmacokinetics of BPC157 in SD rats after intravenous and intramuscular administration (plasma, LC-MS/MS); details: for bioavailability: in vivo
[5] = dog, in vivo, im, t1/2
[6] = Pharmacokinetics of BPC157 in beagle dogs after intravenous and intramuscular administration (plasma)
[7] = mice, rats, rabbits, or dogs; ref Xu et al., 2020; cited from earlier work
Excerpt: Previously, we established a solid-phase synthesis process for BPC157 ([Xue et al., 2004]) and verified its biological activity in rat gastric ulcer models and various skin wound models ([Huang et al., 2015]). […] For evaluating its future clinical use as a therapeutic drug and follow-up clinical trials, the present study was undertaken to evaluate the pharmacokinetics, tissue distribution, metabolis ...

[8] = can be stored at room temperature; ref Sikiric et al., 2018; cited from earlier work
Excerpt: Body-protective compound (BPC) 157 is a peptide isolated from human gastric juice ([Sikiric et al., 1993]). BPC157 comprises 15 amino acids ([…]) and has a molecular weight of 1419 Da. […] BPC157 exerts a significant protective effect on various tissues and organs, such as th ...

[9] = Radiometabolite profiling of [3H]BPC157 in rat plasma, urine, bile and feces (HPLC with radioactive detector, LC-MS/MS); format: in vivo, SD rats; details: for proportion of the bile sample radioactivity: single IM 100 µg/300 μCi/kg [3H]BPC157, mixed bile samples 0 to 72 h; for proportion of the total fecal radioactivity: single IM 100 µg/300 μCi/kg [3H]BPC157, feces 0 to 72 h; for proportion of the total radioactivity in urine: single IM 100 µg/300 μCi/kg [3H]BPC157, mixed urine samples 8 to 72 h
Method: Thirty intact SD rats, six JVC rats, and six BDC rats (half male and half female subjects) were injected intramuscularly with 100 µg/300 μCi/kg of [3H]BPC157. Whole blood and plasma samples of six JVC rats were collected at 0.05, 0.167, 0.5, 1, 2, 4, 8, 24, 48, and 72 h after administration (three males and three females at each time point) for the examination of radio pharmacokinetics of total plasma. Six intact SD rats were used for urinary, fecal, and biliary excretion studies. Urine and fecal samples were collected from each rat at 0–8, 8–24, 24–48, and 48–72 h. Animal carcasses were collected 72 h after administration. Bile excretion was studied in six SD rats with BDC. Bile, urine, and feces were collected 0–72 h after administration. Tissue distribution of BPC was studied in 24 intact SD rats. The rats were euthanized, and tissue samples (brain, heart, kidneys, liver, spleen, lung, stomach, intestine, muscle, grease, ovaries, womb, testicles, and thymus) were collected at 3 min, 10 min, 1 h, and 24 h after administration (three males and three females at each time point). Male SD rats were administered a single IM injection of blank solvent (excipient), and biological samples, including whole blood, plasma, urine, feces, and tissues, were collected for background control. The radioactivity of the plasma, tissue, bile, urinary, and fecal samples was analyzed using a liquid scintillation counter.
Plasma, bile, urine, and fecal samples of intact SD rats or BDC rats after a single administration of [3H]BPC157 were analyzed by HPLC combined with a low-energy radionuclide detection technique to obtain the radiometabolite profiles of [3H]BPC157. The structures of the main metabolites of [3H]BPC157 in rat plasma, bile, urine, and feces were analyzed and identified using LC-MS/MS and standard molecular weight comparison.

[10] = rat bile collected from 0 to 72 h after administration (BDC rats); details: SD rats, up to 72 h
[11] = rat urine collected from 0 to 8 h and from 8 to 72 h after administration; details: SD rats, up to 72 h
[12] = rat feces collected from 0 to 72 h after administration; details: SD rats, up to 72 h
[13] = gastric juice; details: cited from earlier work
[14] = rat plasma collected after a single IM injection of [3H]BPC157; details: SD rats, up to 24 h
[15] = SD rats, single intravenous 20 μg/kg, plasma, LC-MS/MS, mean, n = 6
[16] = both, Sprague-Dawley, rat, plasma, im, 20 μg/kg
[17] = both, Sprague-Dawley, rat, plasma, im, 100 μg/kg
[18] = both, Sprague-Dawley, rat, plasma, im, 500 μg/kg
[19] = both, Sprague-Dawley, rat, plasma, iv, 20 μg/kg
[20] = both, beagle, dog, plasma, im, 6 μg/kg
[21] = both, beagle, dog, plasma, im, 30 μg/kg
[22] = both, beagle, dog, plasma, im, 150 μg/kg
[23] = both, beagle, dog, plasma, iv, 6 μg/kg

For CC(C)C[C@H](NC(=O)CNC(=O)[C@H](C)NC(=O)[C@H](CC(=O)O)NC(=O)[C@H](CC(=O)O)NC(=O)[C@H](C)NC(=O)[C@@H]1CCCN1C(=O)[C@H](CCCCN)NC(=O)CNC(=O)[C@@H]1CCCN1C(=O)[C@@H]1CCCN1C(=O)[C@@H]1CCCN1C(=O)[C@H](CCC(=O)O)NC(=O)CN)C(=O)N[C@H](C(=O)O)C(C)C [BPC157, Gly-Glu-Pro-Pro-Pro-Pro-Gly-Lys-Pro-Ala-Asp-Asp-Ala-Gly-Leu-Val], the half-life ([1]; im) was 20 ± 5.53 min, the half-life ([1]; iv) was 5.27 ± 2.25 min and the half-life [2] was 15.2 min. For the same compound, the half-life [3] was 18.5 min, the Cssav ([4]; SD rats, repeat intramuscular 100 μg/kg for seven consecutive days, Cssav = AUC0–t/τ, τ is the interval of administration) was 0.290 ng/mL and the Cssmin ([4]; SD rats, repeat intramuscular 100 μg/kg for seven consecutive days, Cssmin=(C-48h + C-24h + C0h)/3) was 0 ng/mL. For the same compound, the Tmax ([4]; SD rats, repeat intramuscular 100 μg/kg once a day for seven consecutive days, after last dose, plasma, LC-MS/MS, mean, n = 6) was 3.00 min, the Tmax ([4]; SD rats, single intramuscular 20 μg/kg, plasma, LC-MS/MS, mean, n = 6) was 3 min and the Tmax ([4]; SD rats, single intramuscular 100 μg/kg, plasma, LC-MS/MS, mean, n = 6) was 3 min. It also gave a Tmax ([4]; SD rats, single intramuscular 500 μg/kg, plasma, LC-MS/MS, mean, n = 6) of 3 min, an MRT [4, 15] of 0.727 min and a Vss [4, 15] of 0.0364 L/kg. It also gave an AUC(0-inf) [4, 16] of 1.25 ng·h/mL, an AUC(0-t) [4, 16] of 1.25 ng·h/mL and a Cmax [4, 16] of 12.3 ng/mL. It also gave an MRT [4, 16] of 7.27 min, a Tmax [4, 16] of 3 min and an AUC(0-inf) [4, 17] of 4.83 ng·h/mL. It also gave an AUC(0-t) [4, 17] of 4.82 ng·h/mL, a Cmax [4, 17] of 48.9 ng/mL and an MRT [4, 17] of 9.61 min. For the same compound, the Tmax [4, 17] was 3 min, the AUC(0-inf) [4, 18] was 32.2 ng·h/mL and the AUC(0-t) [4, 18] was 32.2 ng·h/mL. For the same compound, the Cmax [4, 18] was 141 ng/mL, the MRT [4, 18] was 12.8 min and the Tmax [4, 18] was 3 min. For the same compound, the AUC(0-inf) [4, 19] was 6.67 ng·h/mL, the AUC(0-t) [4, 19] was 6.65 ng·h/mL and the clearance [4, 19] was 50.1 mL/min/kg. It also gave a bioavailability ([4]; rat, im, 20 ug/kg) of 18.8%, a bioavailability ([4]; rat, im, 100 ug/kg) of 14.5% and a bioavailability ([4]; rat, im, 500 ug/kg) of 19.4%. For the same compound, the “dose proportionality (AUC0–t and Cmax vs dose)” value ([4]; rats, IM 20, 100, 500 μg/kg, linear regression) was “linear pharmacokinetic characteristics”, the “time for plasma BPC157 to reach its peak” value ([4]; rats, IM 20, 100, and 500 μg/kg) was no more than 9 min and the “elimination half-life of the prototype drug” value ([4]; rats, IV and IM, all doses, plasma) was “less than 30 min”. The “detection of prototype drug in plasma 4 h after administration” value ([4]; rats, plasma, 4 h after administration) was “could not be detected”, the half-life [5] was 19.6 ± 3.72 min and the “dose proportionality (AUC0–t and Cmax vs dose)” value ([6]; beagle dogs, IM 6, 30, 150 μg/kg, linear regression) was “linear pharmacokinetic characteristics”. The “elimination half-life of the prototype drug” value ([6]; beagle dogs, IV and IM, all doses, plasma) was “less than 30 min”, the “detection of prototype drug in plasma 4 h after administration” value ([6]; beagle dogs, plasma, 4 h after administration) was “could not be detected” and the Cssav ([6]; beagle dogs, repeated intramuscular 30 μg/kg for seven consecutive days, Cssav = AUC0–t/τ, mean ± SD, n = 6) was 0.108 ± 0.0177 ng/mL. The Cssmin ([6]; beagle dogs, repeated intramuscular 30 μg/kg for seven consecutive days, Cssmin = (C-48h + C-24h + C0h)/3, mean ± SD, n = 6) was 0.00285 ± 0.00698 ng/mL, the “time for plasma BPC157 to reach its peak” value ([6]; beagles, IM 6, 30, and 150 μg/kg) was no more than 9 min and the AUC(0-inf) [6, 20] was 0.5 ng·h/mL. For the same compound, the AUC(0-t) [6, 20] was 0.483 ng·h/mL, the Cmax [6, 20] was 1.05 ± 0.429 ng/mL and the MRT [6, 20] was 25.8 min. The Tmax [6, 20] was 6.33 min, the bioavailability [6, 20] was 45.3 ± 24.9% and the AUC(0-inf) [6, 21] was 2.73 ng·h/mL. For the same compound, the AUC(0-t) [6, 21] was 2.67 ng·h/mL, the Cmax [6, 21] was 3.3 ± 0.508 ng/mL and the MRT [6, 21] was 37 min. It also gave a Tmax [6, 21] of 8.67 min, a bioavailability [6, 21] of 47.6 ± 18.1% and an AUC(0-inf) [6, 22] of 13.8 ng·h/mL. The AUC(0-t) [6, 22] was 13.8 ng·h/mL, the Cmax [6, 22] was 26.1 ± 7.82 ng/mL and the MRT [6, 22] was 31.4 min. For the same compound, the Tmax [6, 22] was 8.17 min, the bioavailability [6, 22] was 50.6 ± 27% and the AUC(0-inf) [6, 23] was 1.28 ng·h/mL. It also gave an MRT [6, 23] of 2.49 min, a clearance [6, 23] of 90.8 ± 40.1 mL/min/kg and a Tmax ([6]; dog, in vivo, im) of 10.5 min. The Vd ([6]; dog, in vivo, iv, 6 ug/kg) was 0.243 ± 0.162 L/kg, the “tolerability, serious toxic effects” value [7] was “well tolerated and did not demonstrate any serious toxic effects” and the stability [8] was “resistant to hydrolysis, enzyme digestion, and even gastric juice”.

For [3H]O[3H] [tritium water], the “proportion of the bile sample radioactivity” value ([9]; female BDC rats) was 91.2%, the “proportion of the total fecal radioactivity” value ([9]; female rats) was 30.1% and the “proportion of the total radioactivity in urine” value ([9]; female rats) was 69.5%. The “proportion of the bile sample radioactivity” value ([9]; male BDC rats) was 91.0%, the “proportion of the total fecal radioactivity” value ([9]; male rats) was 29.3% and the “proportion of the total radioactivity in urine” value ([9]; male rats) was 75.3%.

In the case of GEPPPPGKPADDAGLV, the fragment found [10] is reported as “[^3H]proline (M1), major”, the fragment found [11] is reported as “[^3H]proline (M1), major, 0 to 8 h” and the fragment found [12] is reported as “[^3H]proline (M1)”. For the same compound, the not cleaved [13] was “resistant to hydrolysis, enzyme digestion, and even gastric juice” and the fragment found [14] was “M1(Proline) and M2 and M3 and M4 and M5 and M6”.
